# Patent US12304890B2, “R-type pyridyloxycarboxylic acid, salt and ester derivative thereof, and preparation method therefor, and herbicidal composition and application thereof” (Qingdao Kingagroot Chemical Compound Co., Ltd., priority 2018, dated 2025)
# Key:
# Type in all cases: in vivo
# [1] = tested on: Monocotyledonous and dicotyledonous weed seeds and main crop seeds; test: Post-emergence test experiment, other weeds and crops (Table 4, 1000 g a.i./ha); settings: 3 weeks in greenhouse, fresh weight inhibition
# Outline: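 Weed and crop seeds (wheat, corn, rice, soybean, cotton, oilseed, millet, sorghum) sown in soil pots in a greenhouse and sprayed at 2-3 leaf stage, 2 weeks after sowing. Compound in acetone/tween-80 with methyl oleate concentrate (1.5 L/ha) as synergist. Effect recorded as fresh-weight growth inhibition rate.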
# Echinochloa crusgalli = test: Post-emergence test experiment, Echinochloa crusgalli; settings: 1000 g a.i./ha, 3 weeks in greenhouse, fresh weight inhibition
# Outline: (§1)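 Greenhouse-grown plants sprayed at the 2-3 leaf stage, 2 weeks after sowing, with compound in acetone/tween-80 diluted in water plus 1.5 L/ha methyl oleate emulsifiable concentrate as synergist. Effect scored 3 weeks later as fresh weight inhibition rate.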
# Digitaria sanguinalis = test: Post-emergence test experiment, Digitaria sanguinalis; settings: 1000 g a.i./ha, 3 weeks in greenhouse, fresh weight inhibition
# Outline: as §1
SMILES,"Activity level (growth inhibition rate), Abutilon theophrasti Medic. [1]","Activity level (growth inhibition rate), Galium aparine [1]","Activity level (growth inhibition rate), Monochoria Vaginalis [1]","Activity level (growth inhibition rate), Echinochloa crusgalli (Echinochloa crusgalli)","Activity level (growth inhibition rate), Digitaria sanguinalis (Digitaria sanguinalis)"
CC(Oc1nc(F)c(Cl)c(N)c1Cl)C(=O)SCc1cccc(Cl)c1 (centres unmarked) [Compound 2-317],5 (Level 5: the growth inhibition rate is greater than 85%),5 (Level 5: the growth inhibition rate is greater than 85%),5 (Level 5: the growth inhibition rate is greater than 85%),5 (Level 5: the growth inhibition rate is greater than 85%),5 (Level 5: the growth inhibition rate is greater than 85%)
C[C@@H](Oc1nc(F)c(Cl)c(N)c1Cl)C(=O)OCc1ccccn1 [Compound 2-342],5 (Level 5: the growth inhibition rate is greater than 85%),5 (Level 5: the growth inhibition rate is greater than 85%),5 (Level 5: the growth inhibition rate is greater than 85%),5 (Level 5: the growth inhibition rate is greater than 85%),5 (Level 5: the growth inhibition rate is greater than 85%)
COC(=O)[C@@H](C)Oc1nc(C)c(Cl)c(N)c1Cl [Compound 2-32],5 (Level 5: the growth inhibition rate is greater than 85%),5 (Level 5: the growth inhibition rate is greater than 85%),5 (Level 5: the growth inhibition rate is greater than 85%),5 (Level 5: the growth inhibition rate is greater than 85%),5 (Level 5: the growth inhibition rate is greater than 85%)
CC(C)CCCSC(=O)[C@@H](C)Oc1nc(F)c(Cl)c(N)c1Cl [Compound 2-108],5 (Level 5: the growth inhibition rate is greater than 85%),5 (Level 5: the growth inhibition rate is greater than 85%),5 (Level 5: the growth inhibition rate is greater than 85%),5 (Level 5: the growth inhibition rate is greater than 85%),5 (Level 5: the growth inhibition rate is greater than 85%)
CC(Oc1nc(F)c(Cl)c(N)c1Cl)C(=O)SCc1cccc(Br)c1 (centres unmarked) [Compound 2-323],5 (Level 5: the growth inhibition rate is greater than 85%),5 (Level 5: the growth inhibition rate is greater than 85%),5 (Level 5: the growth inhibition rate is greater than 85%),5 (Level 5: the growth inhibition rate is greater than 85%),5 (Level 5: the growth inhibition rate is greater than 85%)
CCCC(C)SC(=O)[C@@H](C)Oc1nc(F)c(Cl)c(N)c1Cl (some centres unmarked) [Compound 2-94],5 (Level 5: the growth inhibition rate is greater than 85%),5 (Level 5: the growth inhibition rate is greater than 85%),5 (Level 5: the growth inhibition rate is greater than 85%),5 (Level 5: the growth inhibition rate is greater than 85%),5 (Level 5: the growth inhibition rate is greater than 85%)
CCC(C)CCSC(=O)[C@@H](C)Oc1nc(F)c(Cl)c(N)c1Cl (some centres unmarked) [Compound 2-106],5 (Level 5: the growth inhibition rate is greater than 85%),5 (Level 5: the growth inhibition rate is greater than 85%),5 (Level 5: the growth inhibition rate is greater than 85%),5 (Level 5: the growth inhibition rate is greater than 85%),5 (Level 5: the growth inhibition rate is greater than 85%)
